Columns and labels:
Stat3 = biological target: T1, Stat3 (Mus musculus, UniProt P42227); experiment: In vitro Stat3 DNA-binding activity assay, EMSA with hSIE probe
T1 construct: Nuclear extract preparation from NIH3T3 stimulated by rhIL-6, NIH3T3/hEGFR stimulated by rhEGF; endogenous in cells; host or cells: NIH3T3/hEGFR fibroblasts stimulated with rhEGF (nuclear extract)
Procedure: FIGS. 1A-1E. Inhibition of in vitro Stat3 DNA-binding activity by a platinum complex. Nuclear extracts or cell lysates containing activated Stat1, Stat3 and Stat5, or E2F1 prepared from NIH3T3/hEGFR that are stimulated with EGF or Sf-9 insect cells that are infected with baculovirus expressing Stat1, Stat3, Stat5, or E2F1, respectively, were treated with or without the indicated concentrations of platinum complex, PLATINUM-401 or Cisplatin, for 30 min at room temperature prior to incubation with radiolabeled oligonucleotide probes, and subjected to EMSA analysis. (FIG. 1A) (i) Stat1 and Stat3 binding activities to hSIE probe, (ii) Stat1 and Stat5 binding activities to MGFe probe, and (iii) plot of % oligonucleotide probe-STAT:STAT complexes versus concentration of PLATINUM-401. […] Positions of STAT: STAT-DNA complexes in gel are labeled. In (A) to (C), the control lanes represent DMSO (vehicle)-treatment.
Nuclear extract preparation and gel shift assays—Nuclear extract preparation from NIH3T3 stimulated by rhIL-6, NIH3T3/hEGFR stimulated by rhEGF, v-Src-transformed fibroblasts (NIH3T3/v-Src) or tumor cell lines and electrophoretic mobility shift assay were carried out as previously described (Turkson et al., 1998; Garcia et al., 1997; Yu et al., 1995). The ^32P-labeled oligonucleotide probes used are hSIE (high affinity sis-inducible element from the c-fos gene, m67 variant, 5′-[…]) (SEQ ID NO:1) that binds Stat1 and Stat3 (Garcia et al., 1997; Wagner et al., 1990) and MGFe (mammary gland factor element from the bovine β-casein gene promoter, 5′-AGATTTCTAGGAATTCAA) (SEQ ID NO:2) for Stat1 and Stat5 binding (49,50). Except where indicated, inhibitor compound was pre-incubated with the nuclear extract for 30 min at room temperature prior to incubation with radiolabeled probe.
Compounds from the NCI 2000 diversity set were screened for inhibition of Stat3 signaling in an in vitro DNA-binding activity assay based on analysis by electrophoretic mobility shift assay (EMSA). A platinum (IV) complex, PLATINUM-401 (NSC 295558) (FIG. 1E), was identified as a potent inhibitor of Stat3 and was further characterized for its anti-Stat3 properties. In the in vitro DNA-binding activity assay, nuclear extracts of equal total protein containing active Stat1, Stat3 and Stat5 were pre-incubated with different concentrations of PLATINUM-401 for 30 min prior to incubation with a [^32P]-labeled oligonucleotide, the m67 high affinity sis-inducible element (hSIE) probe that binds Stat1 and Stat3, or the mammary gland factor element (MGFe) that binds Stat1 and Stat5. Samples were then subjected to EMSA.

[1] = test system: IL-6-induced Stat3 activation in NIH3T3; experiment: IL-6-induced Stat3 activation in NIH3T3 (EMSA of nuclear extracts); format: cell-based, mouse
Procedure: FIGS. 3A-3D. Inhibition of Stat3-mediated gene expression by PLATINUM-401. (FIG. 3A) and (FIG. 3B) v-Src-transformed mouse fibroblasts that stably express Stat3-dependent (NIH3T3/v-Src/pLucTKS3) and Stat3-independent (NIH3T3/v-Src/pRLSRE) luciferase reporters or β-galactosidase (β-gal), as well as normal mouse fibroblast (NIH3T3) transiently transfected with pLucTKS3, pGL2-VEGF-Luc, NFkB-Luc or pLucSRE together with or without v-Src were treated with or without PLATINUM-401 for 48 h. Cytosolic extracts were then prepared from cells for luciferase and […] activities measurements. Values are the means and S.D. of three to five independent assays; (FIG. 3C) and (FIG. 3D) Nuclear extracts or whole cell lysates were prepared from IL-6-stimulated normal mouse fibroblasts (NIH3T3) or their v-Src-transformed counterpart (NIH3T3/v-Src) that are treated with or without PLATINUM-401 for different times. Samples of equal total proteins were then subjected to in vitro DNA-binding activity and EMSA analysis or for SDS-PAGE and Western blot analysis for phosphorylated and total Stat3. […]
To further investigate the activities of PLATINUM-401, the inventors treated malignant cells and measured effects on Stat3 signaling. […]

T1 sequence (P42227 2-770 limits assumed): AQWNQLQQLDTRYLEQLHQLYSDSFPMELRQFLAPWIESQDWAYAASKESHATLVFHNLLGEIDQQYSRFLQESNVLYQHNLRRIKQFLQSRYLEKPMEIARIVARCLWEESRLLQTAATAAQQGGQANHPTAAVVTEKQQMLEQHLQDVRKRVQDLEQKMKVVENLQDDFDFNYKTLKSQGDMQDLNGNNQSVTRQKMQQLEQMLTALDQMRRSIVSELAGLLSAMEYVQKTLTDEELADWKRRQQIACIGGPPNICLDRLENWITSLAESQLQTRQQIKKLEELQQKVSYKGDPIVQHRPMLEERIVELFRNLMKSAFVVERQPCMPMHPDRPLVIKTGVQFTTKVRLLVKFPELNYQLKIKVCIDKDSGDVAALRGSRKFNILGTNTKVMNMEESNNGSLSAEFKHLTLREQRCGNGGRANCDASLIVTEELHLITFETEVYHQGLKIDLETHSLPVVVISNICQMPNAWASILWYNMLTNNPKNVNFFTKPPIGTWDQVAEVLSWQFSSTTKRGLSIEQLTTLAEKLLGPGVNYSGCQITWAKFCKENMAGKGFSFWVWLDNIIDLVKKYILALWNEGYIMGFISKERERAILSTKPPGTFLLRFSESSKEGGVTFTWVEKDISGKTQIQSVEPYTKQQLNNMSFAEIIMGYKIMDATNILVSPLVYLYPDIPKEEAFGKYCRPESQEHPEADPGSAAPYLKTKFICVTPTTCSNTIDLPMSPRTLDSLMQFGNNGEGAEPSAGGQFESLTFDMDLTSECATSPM

**Q.** Which results are given for CC(O)CN1CCN(CC(C)O)CC1 (stereo not drawn) [PLATINUM-401]?
**A.** IC50 (Stat3): 1400 nM; effect on Stat3 DNA-binding activity at low protein amount (Stat3; 1 μg protein): strong and a dose-dependent decrease; type of inhibition of Stat3 DNA-binding activity (Lineweaver-Burke plot) (Stat3; 0.3-2 μM compound, varied hSIE probe): non-competitive; effect on Stat3 DNA-binding activity at higher protein levels (Stat3; 2-3 μg protein): diminished effect; effect on Stat3 DNA-binding activity when protein is first bound to DNA (Stat3; Stat3 incubated with hSIE probe 30 min, then compound 3-30 min): fails to disrupt; effect on DNA-binding activity of Stat3:Stat3 homodimer (Stat3; pre-incubated 30 min before hSIE probe): dose-dependent reduction; effect on Stat3 DNA-binding activity on simultaneous addition of compound and hSIE probe (Stat3; simultaneous addition, data not shown): inhibition; time at which IL-6-induced Stat3 activation was inhibited ([1]; IL-6-stimulated NIH3T3): ≤ 30 min; ligand-induced activation of Stat3 DNA-binding activity ([1]; time- and dose-dependent): inhibits

— patent publication US11571418B2, “Platinum compounds that inhibit constitutive STAT3 signaling and induce cell cycle arrest and apoptosis of malignant cells” (H. LEE MOFFITT CANCER CENTER AND RESEARCH INSTITUTE, INC., priority 2011, dated 2023)
